According to patent US12679801B2, “Amino lipid and preparation method and application thereof” (Shenzhen MagicRNA Biotechnology Co., Ltd., priority 2022, dated 2026):

Assays:
endosome/lysosome = conditions: background statement; cited from earlier work
B16-OVA melanoma cells = experiment: OVA mRNA LNP vaccine, in-vivo immunity and tumor treatment (Embodiment 15); set-up: species or system C57BL/6 mice; conditions: B16-OVA tumor-bearing mice, two intramuscular injections of LNP with 1 μg OVA-mRNA, 7 days apart
Experimental: Preparation method: the amino lipid compounds of the disclosure, DSPC, cholesterol and PEG2000-DMG were mixed according to a mole ratio of 50:10:38.5:1.5 and were dissolved in absolute ethyl alcohol. OVA mRNA was dissolved in a sodium acetate buffer solution (50 nM, pH=4.0). The obtained ethyl alcohol solution and the acetate buffer solution […] were mixed in a micro-fluidic chip according to a volume ratio of 1:3 by using a micro-fluidic preparation system to obtain lipid nanoparticles. Then, dialysis was performed for 6 h under the conditions of 1×PBS and temperature was controlled at 4° C. by using a dialysis cassettes or box (MWCO 20,000). Filtration was performed by a 0.22 μm microporous filtering membrane prior to use. The mass ratio of the amino lipid compound to OVA mRNA was about 10:1.
Animal preparation: 5-6-week-old female C57BL/6 mice with the body weight about 18 to 20 g were selected. The feeding environment was an SPF stage feeding room. Animal tests were strictly performed according to the guide of the national health institute and the animal ethics requirements.
In-vivo delivery: B16-OVA melanoma cells (1.5×10^5) were injected to the outer thighs of the mice through subcutaneous injection. When the tumor grew to 50 mm^3 (on the about 6th or 7th day after tumor inoculation), the mice began to inoculated vaccines, the animals were subjected to twice immunization through intramuscular injection of an LNP preparation containing 1 μg OVA-mRNA. An interval between first and second injections was 7 days. The tumor growth was measured for 3 times every week by a digital display calliper, and a calculation formula was […]. When the tumor size reached 1500 mm^3, the mice received euthanasia. Additionally, 60% of mice (E7C71A9 group) and 40% of mice (E6C71A12 group) respectively reached the complete relieving effect.

BMDC primary cells [1] = experiment: Luc mRNA LNP transfection on BMDC primary cells (Embodiment 13, Table 3); format: cell-based, C57BL/6 mice; conditions: 16 h, ONE-Glo Luciferase
In short: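 Bone-marrow dendritic cells from female C57BL/6 mice were cultured 7 days with GM-CSF (20 ng/mL) and IL-4 (10 ng/mL). Cells were then exposed to luciferase mRNA LNPs for 16 h at 37° C., 5% CO2. Transfection was read as ONE-Glo luminescence.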

HeLa cells = experiment: In-vitro evaluation of E7C71A9, Compound A, B, C as Luc-mRNA vector (Embodiment 27, Table 14); format: cell-based; conditions: Luc-mRNA 100 ng/well, 16-20 h, relative to Lipofectamine3000, lipid:DSPC:cholesterol:PEG2000-DMG 43:10.5:45:1.5
Text: • Cell line: HeLa cell line • Culture medium: 1640 […] supplemented with 10% fetal calf serum • Screening form: 96-well plate cell transfection • Detection: fluorescence intensity detection by a multifunctional microplate reader. According to manufacturer's instructions, Lipofectamine3000 was used as a positive control group. • Method: a pipette was used for sample addition. The shown content is the content of a single well of a 96-well plate.
1. Synthesis of E7C71A9, Compound A, Compound B, and Compound C was performed as described above. And these four ionizable amino lipid compounds were respectively mixed with DSPC, cholesterol and PEG2000-DMG into absolute ethyl alcohol. according to a mole ratio of 43:10.5:45:1.5, The Luc-mRNA was dissolved into a sodium acetate buffer solution ([…], pH=5.0). The mixed lipid solution was taken out by a pipette, and was added into the Luc-mRNA solution to be sufficiently mixed. A proportion ratio of the ethyl alcohol solution to the sodium acetate buffer solution ([…], pH=5.0) was controlled to be 1:3, and a nanoparticle solution was prepared. A mass ratio of the amino lipid compound to luciferase mRNA (Luc mRNA) was about 10:1, and the mRNA consumption in each well was 100 ng.
2. After the lipid nanoparticle solution was incubated for 30 min at room temperature, 100 μL of fresh resuspended HeLa cells (1×10^4 cells) were added into each well of a 96-well all-white ELISA plate. Then, the lipid nanoparticle solution was added into the 96-well plate (10 μL for each well) by a pipette. The solution was placed into a 37° C. incubator containing 5% CO2 to be incubated.
3. After 16 h to 20 h of cell initial transfection, a substrate ONE-Glo™ Luciferase was added into cells at 100 μL/well, and after 2 min, detection was performed by a multifunctional or multimode microplate reader.
4. The relative transfection efficiency was calculated as follows: Relative transfection efficiency (%)=fluorescence intensity of LNP/fluorescence intensity of Lipofectamine3000×100%.

BMDC primary cells [2] = experiment: Luc mRNA LNP transfection of the four amino lipids on BMDC primary cells (Embodiment 28, Table 15); format: cell-based, C57BL/6 mice; conditions: Luc mRNA LNP 10 μL per well, 16 h, ONE-Glo Luciferase
Experimental: Preparation method: the same as that described above.
Animal preparation: 6-week-old female C57BL/6 mice with the body weight about 20 g were selected. The feeding environment was an SPF stage feeding room. Animal tests were strictly performed according to the guide of the national health institute and the animal ethics requirements.
Cell acquisition: C57BL/6 mice were killed through cervical dislocation, and were soaked for 5 min in 75% ethyl alcohol. Dissection was performed to obtain thigh and calf tibiae of the mice. Attached muscles were removed to expose sclerotin. Then, bone marrow in tibiae was blown out by using a 1 mL injector sucked with PBS. After the bone marrow was blown away, impurities were filtered away by a 50 μm filter screen. A red blood cell lysis buffer (3-4 mL) was added into an obtained filtrate. Then, after placement for 5 min, 800 g centrifugation was performed for 5 min to remove the supernatant. The obtained cells were placed into a 1640 culture medium (containing 10% fetal calf serum, 20 ng/mL GMCSF and 10 ng/ml IL4) to be resuspended, and were inoculated into a 6-well plate at an inoculation density of 100000 cells/ml culture medium. The materials were placed into a 37° C. cell incubator containing 5% CO2. Half liquid change was performed once every 2 days. Suspended cells and loose wall attached cells were collected on the seventh day, and were […], and the volume of a culture medium was 100 μL.
Cell transfection: lipid nanoparticles coated with luciferase mRNA were added into a 96-well all-white ELISA plate laid with primary cells. The adding volume of the mRNA lipid nanoparticles in each well was controlled to be 10 μL. Then, the materials were put into a 37° C. incubator containing 5% CO2 for 16 h.
Transfection efficiency detection: 20 μL of a substrate ONE-Glo™ Luciferase was added into each well of a 96-well all-white ELISA plate. After 1 min, detection was performed by a multifunctional or multimode microplate reader. DLin-MC3 was used as a control.

| Compound | RNA that escapes from the endosome/lysosome (endosome/lysosome) | mice that reached the complete relieving effect (B16-OVA melanoma cells) [%] | result (survival curve, FIG. 4) compared with MC3 group (B16-OVA melanoma cells) | tumor growth speed compared with MC3 group (FIG. 3) (B16-OVA melanoma cells) | Luciferase luminescence intensity (BMDC primary cells [1]) [E+ 04] | Relative Transfection Efficiency (HeLa cells) | Fluorescence intensity (transfection expression intensity) (BMDC primary cells [2]) |
| --- | --- | --- | --- | --- | --- | --- | --- |
| CCCCC/C=C\C/C=C\CCCCCCCCC(CCCCCCCC/C=C\C/C=C\CCCCC)OC(=O)CCCN(C)C [DLin-MC3, DLin-MC3-DMA] | 1%-4% |  |  |  |  |  |  |
| CCCCCCCCCCC(COC(=O)C(CCCCCC)CCCCCCCC)OC(=O)CCCN(C)C (stereo not drawn) [E7C71A9, 2-((4-(Dimethylamino)Butanoyl)Oxy) Dodecyl 2-Hexyldecanoate] |  | 60 | obviously superior to that of MC3 group | obviously lower than that of MC3 group | 8.8 | 2.0 | 8.8E+04 |
| CCCCCCCCCCC(CCCOC(=O)C(CCCCCC)CCCCCCCC)OC(=O)CCCN(C)C (stereo not drawn) [Compound B] |  |  |  |  |  | 0.45 | 2.5E+04 |
